One may read the DC50 as the concentration giving 50% degradation.

Some results are limits rather than exact numbers.

Chain of GSPT1 (P15170 whole entry): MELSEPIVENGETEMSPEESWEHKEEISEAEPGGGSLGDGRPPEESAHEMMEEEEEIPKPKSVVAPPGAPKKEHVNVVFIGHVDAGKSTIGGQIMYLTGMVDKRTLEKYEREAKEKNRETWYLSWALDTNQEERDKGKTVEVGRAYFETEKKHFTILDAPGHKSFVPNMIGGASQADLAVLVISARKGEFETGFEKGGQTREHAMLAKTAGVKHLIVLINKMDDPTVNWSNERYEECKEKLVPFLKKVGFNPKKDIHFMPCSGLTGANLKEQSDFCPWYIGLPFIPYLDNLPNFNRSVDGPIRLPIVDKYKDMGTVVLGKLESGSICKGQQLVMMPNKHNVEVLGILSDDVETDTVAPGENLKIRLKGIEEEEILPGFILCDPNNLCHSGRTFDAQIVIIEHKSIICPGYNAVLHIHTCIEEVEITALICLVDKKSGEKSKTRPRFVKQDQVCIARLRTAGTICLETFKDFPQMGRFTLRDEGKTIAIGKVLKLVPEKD
Chain of GSPT1 (Q96SW2 whole entry): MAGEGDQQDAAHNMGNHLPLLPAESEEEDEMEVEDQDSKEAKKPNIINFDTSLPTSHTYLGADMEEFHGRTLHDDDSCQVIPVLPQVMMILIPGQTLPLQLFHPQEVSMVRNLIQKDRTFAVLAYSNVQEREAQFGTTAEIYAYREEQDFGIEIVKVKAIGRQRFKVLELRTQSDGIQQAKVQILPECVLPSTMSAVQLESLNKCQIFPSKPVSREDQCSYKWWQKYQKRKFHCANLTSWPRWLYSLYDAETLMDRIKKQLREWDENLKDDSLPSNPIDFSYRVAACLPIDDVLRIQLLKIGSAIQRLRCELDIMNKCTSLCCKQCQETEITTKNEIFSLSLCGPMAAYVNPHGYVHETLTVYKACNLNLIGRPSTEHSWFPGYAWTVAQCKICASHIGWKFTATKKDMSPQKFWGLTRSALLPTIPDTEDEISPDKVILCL
Chain of GSPT1 (Q16531 2-1140 partner): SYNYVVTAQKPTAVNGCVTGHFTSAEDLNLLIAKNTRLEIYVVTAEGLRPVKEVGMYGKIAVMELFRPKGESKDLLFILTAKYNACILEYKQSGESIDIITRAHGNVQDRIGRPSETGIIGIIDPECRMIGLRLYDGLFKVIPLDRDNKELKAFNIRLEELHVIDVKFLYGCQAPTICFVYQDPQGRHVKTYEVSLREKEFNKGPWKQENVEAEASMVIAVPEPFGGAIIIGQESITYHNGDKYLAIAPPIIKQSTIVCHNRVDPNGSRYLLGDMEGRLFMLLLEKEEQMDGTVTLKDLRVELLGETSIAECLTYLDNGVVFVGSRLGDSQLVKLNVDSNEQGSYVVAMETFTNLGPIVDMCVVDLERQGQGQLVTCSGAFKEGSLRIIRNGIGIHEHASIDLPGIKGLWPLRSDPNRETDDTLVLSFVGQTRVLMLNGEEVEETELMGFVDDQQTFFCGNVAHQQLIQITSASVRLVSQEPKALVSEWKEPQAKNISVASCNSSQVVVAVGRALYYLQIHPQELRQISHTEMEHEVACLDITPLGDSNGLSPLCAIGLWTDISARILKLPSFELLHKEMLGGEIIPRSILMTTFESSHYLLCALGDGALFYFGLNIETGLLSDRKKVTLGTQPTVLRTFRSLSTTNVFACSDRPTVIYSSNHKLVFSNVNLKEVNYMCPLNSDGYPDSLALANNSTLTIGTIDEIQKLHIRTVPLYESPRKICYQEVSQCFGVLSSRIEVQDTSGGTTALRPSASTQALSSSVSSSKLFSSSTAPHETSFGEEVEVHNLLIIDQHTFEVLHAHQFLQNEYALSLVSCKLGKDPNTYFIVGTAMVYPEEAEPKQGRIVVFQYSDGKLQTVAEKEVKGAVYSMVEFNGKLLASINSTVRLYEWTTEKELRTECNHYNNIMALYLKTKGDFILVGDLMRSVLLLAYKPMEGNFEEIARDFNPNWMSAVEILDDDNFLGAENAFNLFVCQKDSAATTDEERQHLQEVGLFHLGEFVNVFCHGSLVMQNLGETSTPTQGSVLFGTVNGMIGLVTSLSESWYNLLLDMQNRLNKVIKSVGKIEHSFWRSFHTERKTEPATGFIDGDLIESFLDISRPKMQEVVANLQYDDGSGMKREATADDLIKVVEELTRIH

The assay has as its target GSPT1 (Homo sapiens (Human), UniProt P15170+Q96SW2). The experiment in a line: immunofluorescence assay for GSPT1 degradation in CAL-51 cells (Example 10). The format is cell-based. The settings on record: CAL-51 cells, 6 h; read-out: IF Class (GSPT1 degradation DC50). On the procedure:
The representative compounds were tested in an immunofluorescence assay for their activity to degrade GSPT1. […] Compounds were stored at 10 mM DMSO stocks. […] Cells were subsequently rinsed with PBS and fixed in 10% Formalin solution (50 μl, Sigma HT5011)) for 20 mins at room temperature. […] Following three further PBS washes, 50 μL blocking buffer (1% BSA, Sigma A4503, in PBS) was added for 45 min for signal-to noise reduction. Primary antibody (human GSPT1, Sigma HPA052488) was diluted in blocking buffer (dil.1/300, 35 μL/well) and incubated with the cells overnight at 4° C. […] After three final PBS washes, samples were conserved in 100 μL PBS in the dark, until measurement. Image acquisition was performed on the Operetta High-Content Imager (Perkin-Elmer). […] For the determination of GSPT1 DC50 values, a custom algorithm implemented in the PerkinElmer image analysis software Harmony-Acapella® was developed. After user-defined setting of adjustment parameters, the analysis was run identically without human intervention for all image fields. DAPI staining of the nuclei was used to determine the location of cells using standard nuclei detection modules. Segmentation artifacts were removed by threshold-based filters for area, roundness and intensity. The outline of the cells was determined analogously from the sum of the normalized, smoothed DAPI and Actin channel, starting from each nucleus. […] GSPT1 degradation (DC50) was calculated after normalization to controls and data import in CDD vault Database, using non-linear regression.
Regarding `COc1cc(NC(=O)OCc2ccc3c(c2)C(=O)N(C2CCC(=O)NC2=O)C3)c(F)cc1C` (stereo not shown) [Compound 229, (2-(2,6-dioxopiperidin-3-yl)-3-oxoisoindolin-5-yl)methyl (2-fluoro-5-methoxy-4-methylphenyl)carbamate], the DC50 is 30 to 300 nM.
Turning to `CC(C)(C)[C@H]1C[C@@H](NC(=O)OCc2ccc3c(c2)C(=O)N(C2CCC(=O)NC2=O)C3)C1` (stereo partly drawn) [Compound 184, cis-(2-(2,6-dioxopiperidin-3-yl)-3-oxoisoindolin-5-yl)methyl ((1s,3s)-3-(tert-butyl)cyclobutyl)carbamate], the DC50 is above 300 nM.
As for `Cc1cc(NC(=O)OCc2ccc3c(c2)C(=O)N(C2CCC(=O)NC2=O)C3)ncc1N1CCC[C@H]1C` (stereo partly drawn) [Compound 237, (2-(2,6-dioxopiperidin-3-yl)-3-oxoisoindolin-5-yl)methyl (4-methyl-5-((R)-2-methylpyrrolidin-1-yl)pyridin-2-yl)carbamate], the figure is 30 to 300 nM.
As for `CCCOc1ccc(F)c(NC(=O)OCc2ccc3c(c2)C(=O)N(C2CCC(=O)NC2=O)C3)c1` (stereo not shown) [Compound 226, (2-(2,6-dioxopiperidin-3-yl)-3-oxoisoindolin-5-yl)methyl (2-fluoro-5-propoxyphenyl)carbamate], the figure is 30 to 300 nM.
As for `Cc1cc(F)c(NC(=O)OCc2ccc3c(c2)C(=O)N(C2CCC(=O)NC2=O)C3)cc1OC(F)(F)F` (stereo not shown) [Compound 204, (2-(2,6-dioxopiperidin-3-yl)-3-oxoisoindolin-5-yl) methyl (2-fluoro-4-methyl-5-(trifluoromethoxy)phenyl)carbamate], the figure is 30 to 300 nM; as for `Cc1cc(NC(=O)OCc2ccc3c(c2)C(=O)N(C2CCC(=O)NC2=O)C3)ncc1N1CCCC1` (stereo not shown) [Compound 194, (2-(2,6-dioxopiperidin-3-yl)-3-oxoisoindolin-5-yl)methyl (4-methyl-5-(pyrrolidin-1-yl)pyridin-2-yl) carbamate], above 300 nM.
As to `O=C1CCC(N2Cc3ccc(COC(=O)Nc4cccc(OC(F)(F)F)c4F)cc3C2=O)C(=O)N1` (stereo not shown) [Compound 169], the DC50 was 30 to 300 nM.
With `O=C1CCC(N2Cc3ccc(COC(=O)NC45CC(c6ccccc6F)(C4)C5)cc3C2=O)C(=O)N1` (stereo not shown) [Compound 174, (2-(2,6-dioxopiperidin-3-yl)-3-oxoisoindolin-5-yl)methyl (3-(2-fluorophenyl)bicyclo[1.1.1]pentan-1-yl) carbamate] the figure was below 30 nM.
On to `CCOc1ccc(F)c(NC(=O)OCc2ccc3c(c2)C(=O)N(C2CCC(=O)NC2=O)C3)c1` (stereo not shown) [Compound 223, (2-(2,6-dioxopiperidin-3-yl)-3-oxoisoindolin-5-yl)methyl (5-ethoxy-2-fluorophenyl)carbamate], for which the half-maximal degradation concentration (DC50) was above 300 nM.
With `O=C1CCC(N2Cc3ccc(COC(=O)Nc4cccc(Cl)c4)cc3C2=O)C(=O)N1` (stereo not shown) [Compound 239, (2-(2,6-dioxopiperidin-3-yl)-3-oxoisoindolin-5-yl)methyl (3-chlorophenyl)carbamate] the figure was below 30 nM; with `C[C@@H]1CCCN1c1cnc(NC(=O)OCc2ccc3c(c2)C(=O)N(C2CCC(=O)NC2=O)C3)c(F)c1` (stereo partly drawn) [Compound 232, (2-(2,6-dioxopiperidin-3-yl)-3-oxoisoindolin-5-yl)methyl (3-fluoro-5-((R)-2-methylpyrrolidin-1-yl)pyridin-2-yl)carbamate], 30 to 300 nM; with `CC(C)c1cccc(NC(=O)OCc2ccc3c(c2)C(=O)N(C2CCC(=O)NC2=O)C3)c1` (stereo not shown) [Compound 217, (2-(2,6-dioxopiperidin-3-yl)-3-oxoisoindolin-5-yl)methyl (3-isopropylphenyl)carbamate], below 30 nM.
With `O=C1CCC(N2Cc3ccc(COC(=O)NC45CC(CF)(C4)C5)cc3C2=O)C(=O)N1` (stereo not shown) [Compound 202, (2-(2,6-dioxopiperidin-3-yl)-3-oxoisoindolin-5-yl)methyl (3-(fluoromethyl)bicyclo[1.1.1]pentan-1-yl) carbamate] the figure was above 300 nM; with `O=C1CCC(N2Cc3ccc(COC(=O)Nc4cc(F)c5c(c4)CCO5)cc3C2=O)C(=O)N1` (stereo not shown) [Compound 212, (2-(2,6-dioxopiperidin-3-yl)-3-oxoisoindolin-5-yl)methyl (7-fluoro-2,3-dihydrobenzofuran-5-yl)carbamate], below 30 nM; with `O=C1CCC(N2Cc3ccc(COC(=O)Nc4cc(F)c(OC(F)F)c(F)c4)cc3C2=O)C(=O)N1` (stereo not shown) [Compound 206, (2-(2,6-dioxopiperidin-3-yl)-3-oxoisoindolin-5-yl) methyl (4-(difluoromethoxy)-3,5-difluorophenyl)carbamate], 30 to 300 nM.
In the case of `O=C1CCC(N2Cc3ccc(COC(=O)NC4CN(Cc5ccccc5)C4)cc3C2=O)C(=O)N1` (stereo not shown) [Compound 168], the 50% degradation concentration (DC50) was above 300 nM.
Take `Cc1ccc(NC(=O)OCc2ccc3c(c2)C(=O)N(C2CCC(=O)NC2=O)C3)nc1Cl` (stereo not shown) [Compound 183, (2-(2,6-dioxopiperidin-3-yl)-3-oxoisoindolin-5-yl)methyl (6-chloro-5-methylpyridin-2-yl)carbamate]: the DC50 was in the range of 30 to 300 nM.
As for `O=C1CCC(N2Cc3ccc(COC(=O)NC4CN(c5ccccc5)C4)cc3C2=O)C(=O)N1` (stereo not shown) [Compound 167], the figure is above 300 nM.
In the case of `O=C1CCC(N2Cc3ccc(COC(=O)NC45C6C7C4C4C5C6C74c4ccccc4)cc3C2=O)C(=O)N1` (stereo not shown) [Compound 225, (2-(2,6-dioxopiperidin-3-yl)-3-oxoisoindolin-5-yl)methyl (4-phenylcuban-1-yl)carbamate], the DC50 was above 300 nM.
For `CC(C)(O)c1ccc(NC(=O)OCc2ccc3c(c2)C(=O)N(C2CCC(=O)NC2=O)C3)cn1` (stereo not shown) [Compound 199, (2-(2,6-dioxopiperidin-3-yl)-3-oxoisoindolin-5-yl)methyl (6-(2-hydroxypropan-2-yl)pyridin-3-yl)carbamate], the DC50 is above 300 nM.
As for `CC(C)(C)c1ccc(F)c(NC(=O)OCc2ccc3c(c2)C(=O)N(C2CCC(=O)NC2=O)C3)c1` (stereo not shown) [Compound 235], the DC50 was 30 to 300 nM.
For `O=C1CCC(N2Cc3ccc(COC(=O)Nc4cccc(C5CC5)c4)cc3C2=O)C(=O)N1` (stereo not shown) [Compound 216, (2-(2,6-dioxopiperidin-3-yl)-3-oxoisoindolin-5-yl)methyl (3-cyclopropylphenyl)carbamate], the DC50 was below 30 nM.

The values above are taken from patent publication US11912682B2, “Isoindolinone compounds” (Monte Rosa Therapeutics, Inc., priority 2021, dated 2024).
